Patent publication US20050215544A1, “Methods of treating HIV infection” (priority 2004, published 2005)

How the values were obtained:
[1] = test system: HIV-1 LAI; experiment: microbe, parasite or virus in culture
Procedure: (§1) Virus and cell lines. The T-cell lines, MT-2 and PM-1 were obtained through the AIDS Research and Reference Reagent Program, NIAID, and were contributed by Dr. D. Richman and Dr. R. Gallo, respectively. Both cell lines were cultured in RPMI 1640 medium supplemented with 10% fetal bovine serum, 2 mM L-glutamine and sub-cultured twice a week. The LAI strain of HIV-1 was obtained from the Fred Hutchinson Cancer Research Center, and the Bal strain was from NIH. Both virus stocks were amplified and titered in MT-2 cells (LAI) and PM-1 cells (Bal) using a virus infectivity assay.
(§2) Drug Susceptibility and Cytotoxicity Assays. For drug susceptibility assays, MT-2 cells were infected with HIV-1 LAI (or PM-1 cells with HIV-1 Bal) at an MOI of 0.005, and seeded into 96-well microtiter plates ([…] cells/ml) containing serial dilutions of test compounds. […] Each drug ratio consisted of an array of 3-fold serial dilutions, and was performed in quadruplicate. The plates were incubated at 37° C./5% CO2. The MT-2 cells infected with HIV-1 LAI were incubated for 5 days. On day-five post-infection, 20 μl from each well was harvested and quantitated by a reverse transcriptase (RT) assay, or in samples involving non-nucleoside RT inhibitors, an MTS assay. The PM-1 cells infected with HIV-1 Bal and used for studying the combinations with CCR5 inhibitors were incubated for six days. On day-six post-infection, 20 μl from each well was harvested, 20- and 50-fold diluted and quantitated by p24 assay. Cytotoxicity assays were performed using uninfected cells, exposed to the same drug combinations, and incubated for six days. Cell viability was determined by an MTS assay. The CC50 values were calculated by using the exponential form of the median effect equation as mentioned below for calculation of EC50.
(§3) In this equation, Fa stands for “fraction affected,” and represents the fraction of the viral load that has been inactivated. […] ED50 is drug concentration that is expected to reduce the amount of virus by 50%, and m is a parameter that reflects the slope of the concentration-response curve.
In carrying out the combination experiments below, the EC50 for Compound 1 and each comparator compound was determined during the course of each study, and used in the subsequent data analysis.

[2] = test system: HIV-1 LAI; experiment: Two-drug combination antiviral assay with Compound 1 (combination indices, Chou and Rideout); assay type: cell-based; conditions: combination with Compound 1; for Combination Indices at 50% HIV Inhibition (Confidence Interval) / Combination Indices at 75% HIV Inhibition (Confidence Interval) / Combination Indices at 90% HIV Inhibition (Confidence Interval): 95% CI in parenthesis; for Overall Result of two-drug combination: all ratios and inhibition levels
Procedure: as §1, §2
Analysis of Drug Combination Effects. For determination of CI values, drugs were diluted in a fixed ratio and multiple ratios were analyzed. The drug serial dilutions spanned a range of concentrations near the EC50 value of each compound, so that equivalent antiviral activities could be compared. Concentration-response curves were estimated for each individual drug and every combination using the median-effect equation. The equation was fit using a nonlinear regression routine (Proc Nlin) in PC SAS version 8.01 (SAS Institute Inc., SAS Version 8.01, Cary, NC: SAS Institute Inc., 1990).
as §3
To assess antiviral effects of different drug combination treatments, combination indices (CIs) were calculated according to Chou and Rideout. The combination index was computed as CI=[D]1/[Dm]1+[D]2/[Dm]2
In this equation [Dm]1 and [Dm]2 are the concentrations of drugs that would individually produce a specific level of effect, while [D]1 and [D]2 are the concentrations of drugs in combination that would produce the same level of effect.
Theoretically, additivity is implied if the CI is equal to one, synergy if the CI is less than one, and antagonism if the CI is greater than one. […] At best, we can construct a range that contains the likely values for the CI, given the noise in the data. In this report, these ranges are reported in parentheses next to each point estimate of the CI. […] If the range fell entirely above 1.0, we would infer antagonistic behavior. If the range were to include 1.0, we would infer additivity.

[3] = Human immunodeficiency virus 1, MT2, 120 h
[4] = EC50 ratio 1:1 (Compound 1 to comparator)
[5] = EC50 ratio 1:2.5 (Compound 1 to comparator)
[6] = EC50 ratio 2.5:1 (Compound 1 to comparator)

| SMILES | EC50 [1, 3] | Combination Indices at 50% HIV Inhibition (Confidence Interval) [2, 4] | Combination Indices at 75% HIV Inhibition (Confidence Interval) [2, 4] | Combination Indices at 90% HIV Inhibition (Confidence Interval) [2, 4] | Combination Indices at 50% HIV Inhibition (Confidence Interval) [2, 5] | Combination Indices at 75% HIV Inhibition (Confidence Interval) [2, 5] | Combination Indices at 90% HIV Inhibition (Confidence Interval) [2, 5] | Combination Indices at 50% HIV Inhibition (Confidence Interval) [2, 6] | Combination Indices at 75% HIV Inhibition (Confidence Interval) [2, 6] | Combination Indices at 90% HIV Inhibition (Confidence Interval) [2, 6] | EC50 ([1]; MT-2 cells infected with HIV-1 LAI, MOI 0.005, 5 days, single drug) | Overall Result of two-drug combination [2] | Overall Result of two-drug combination ([2]; listed as nevirapine) | Overall Result of two-drug combination ([2]; listed as delavirdine) |
| --- | --- | --- | --- | --- | --- | --- | --- | --- | --- | --- | --- | --- | --- | --- |
| Nc1ccn([C@@H]2CS[C@H](CO)O2)c(=O)n1 [Lamivudine] | 30 nM | 0.57 (0.41, 0.73) | 0.73 (0.44, 1.02) | 1.00 (0.37, 1.62) | 0.17 (0.13, 0.21) | 0.33 (0.23, 0.43) | 0.70 (0.33, 1.06) | 0.18 (0.13, 0.22) | 0.38 (0.26, 0.49) | 0.85 (0.40, 1.29) |  |  |  |  |
| C[C@H](Cn1cnc2c(N)ncnc21)OCP(=O)(O)O [Tenofovir] |  | 0.11 (0.09, 0.13) | 0.22 (0.17, 0.27) | 0.54 (0.31, 0.76) | 0.13 (0.11, 0.15) | 0.23 (0.18, 0.28) | 0.50 (0.30, 0.70) | 0.16 (0.13, 0.19) | 0.22 (0.17, 0.28) | 0.38 (0.22, 0.54) | 13 nM | Synergistic |  |  |
| CC(C)(C)NC(=O)[C@@H]1C[C@@H]2CCCC[C@@H]2CN1C[C@@H](O)[C@H](Cc1ccccc1)NC(=O)[C@H](CC(N)=O)NC(=O)c1ccc2ccccc2n1 [Saquinavir] | 4 nM | 0.50 (0.40, 0.61) | 0.92 (0.64, 1.19) | 1.71 (0.90, 2.51) | 0.24 (0.21, 0.26) | 0.32 (0.27, 0.36) | 0.43 (0.33, 0.52) | 0.14 (0.12, 0.16) | 0.31 (0.25, 0.37) | 0.68 (0.45, 0.92) |  | Additive- |  |  |
| Cc1cn([C@H]2C=C[C@@H](CO)O2)c(=O)[nH]c1=O [Stavudine] | 318 nM | 0.25 (0.18, 0.33) | 0.53 (0.32, 0.74) | 1.12 (0.38, 1.86) | 0.14 (0.10, 0.19) | 0.22 (0.13, 0.32) | 0.36 (0.10, 0.62) | 0.28 (0.24, 0.32) | 0.39 (0.32, 0.47) | 0.55 (0.38, 0.73) |  | Moderate- |  |  |
| Nc1ccn([C@H]2CC[C@@H](CO)O2)c(=O)n1 [Zalcitabine] | 12 nM | 0.19 (0.15, 0.23) | 0.35 (0.26, 0.45) | 0.75 (0.40, 1.09) | 0.38 (0.31, 0.45) | 0.37 (0.28, 0.47) | 0.42 (0.24, 0.61) | 0.22 (0.18, 0.25) | 0.28 (0.22, 0.34) | 0.38 (0.24, 0.52) |  | Synergistic |  |  |
| Cc1ccnc2c1NC(=O)c1cccnc1N2C1CC1 [Nevirapine] | 127 nM | 0.13 (0.11, 0.16) | 0.17 (0.13, 0.22) | 0.24 (0.14, 0.33) | 0.32 (0.23, 0.40) | 0.72 (0.45, 0.99) | 1.69 (0.63, 2.75) | 0.37 (0.29, 0.44) | 0.76 (0.54, 0.98) | 1.60 (0.86, 2.34) |  | Additive- | additive to synergistic |  |
| O=C(C(=O)N1CCN(C(=O)c2ccccc2)CC1)c1c[nH]c2c(-n3ccnn3)ncc(F)c12 [Compound 1, 1-Benzoyl-4-[2-[4-fluoro-7-(1H-1,2,3-triazol-1-yl)-1H-pyrrolo[2,3-c]pyridin-3-yl]-1,2-dioxoethyl]-piperazine] | 0.1 to 0.3 nM |  |  |  |  |  |  |  |  |  |  | synergistic or additive-synergistic |  |  |
| Nc1nc(NC2CC2)c2ncn([C@H]3C=C[C@@H](CO)C3)c2n1 [Abacavir] | 528 nM | 0.18 (0.13, 0.23) | 0.47 (0.30, 0.64) | 1.23 (0.52, 1.94) | 0.34 (0.27, 0.41) | 0.64 (0.45, 0.83) | 1.22 (0.65, 1.79) | 0.23 (0.19, 0.28) | 0.42 (0.30, 0.53) | 0.75 (0.42, 1.07) |  | Additive- |  |  |
| Cc1c(O)cccc1C(=O)N[C@@H](CSc1ccccc1)[C@H](O)CN1C[C@H]2CCCC[C@H]2C[C@H]1C(=O)NC(C)(C)C [Nelfinavir] | 6 nM | 0.38 (6.31, 0.46) | 0.56 (0.47, 0.72) | 0.83 (0.47, 1.18) | 0.56 (0.46, 0.65) | 0.89 (0.68, 1.10) | 1.43 (0.89, 1.97) | 0.17 (0.13, 0.21) | 0.40 (0.29, 0.52) | 0.95 (0.49, 1.42) |  | Additive- |  |  |
| CC(C)Nc1cccnc1N1CCN(C(=O)c2cc3cc(NS(C)(=O)=O)ccc3[nH]2)CC1 [Delavirdine] | 99 nM | 0.79 (0.55, 1.03) | 0.59 (0.35, 0.84) | 0.45 (0.16, 0.73) | 0.99 (0.72, 1.26) | 0.90 (0.56, 1.23) | 0.81 (0.34, 1.29) | 0.56 (0.28, 0.84) | 0.51 (0.16, 0.86) | 0.45 (0.00, 0.95) |  | Additive- |  | additive to synergistic |
